pIC50: −log10 of the molar value. Active and inactive are the calls of the source. No cut-off for these calls is given here.

Here are results for 4 compounds from ChEMBL document CHEMBL4665787, “Bifunctional and Unusual Amino Acid β- or γ-Ester Prodrugs of Nucleoside Analogues for Improved Affinity to ATB and Enhanced Metabolic Stability: An Application to Floxuridine” (J Med Chem, 2020).

Data set [1] is described as follows: Half life of compound in human MIA PaCa-2 cell homogenate. It counts as ADME, tissue-based.
In data set [2] the target is T1, Sodium- and chloride-dependent neutral and basic amino acid transporter B(0+) (Homo sapiens, UniProt Q9UN76).
T1 sequence (Q9UN76 whole entry): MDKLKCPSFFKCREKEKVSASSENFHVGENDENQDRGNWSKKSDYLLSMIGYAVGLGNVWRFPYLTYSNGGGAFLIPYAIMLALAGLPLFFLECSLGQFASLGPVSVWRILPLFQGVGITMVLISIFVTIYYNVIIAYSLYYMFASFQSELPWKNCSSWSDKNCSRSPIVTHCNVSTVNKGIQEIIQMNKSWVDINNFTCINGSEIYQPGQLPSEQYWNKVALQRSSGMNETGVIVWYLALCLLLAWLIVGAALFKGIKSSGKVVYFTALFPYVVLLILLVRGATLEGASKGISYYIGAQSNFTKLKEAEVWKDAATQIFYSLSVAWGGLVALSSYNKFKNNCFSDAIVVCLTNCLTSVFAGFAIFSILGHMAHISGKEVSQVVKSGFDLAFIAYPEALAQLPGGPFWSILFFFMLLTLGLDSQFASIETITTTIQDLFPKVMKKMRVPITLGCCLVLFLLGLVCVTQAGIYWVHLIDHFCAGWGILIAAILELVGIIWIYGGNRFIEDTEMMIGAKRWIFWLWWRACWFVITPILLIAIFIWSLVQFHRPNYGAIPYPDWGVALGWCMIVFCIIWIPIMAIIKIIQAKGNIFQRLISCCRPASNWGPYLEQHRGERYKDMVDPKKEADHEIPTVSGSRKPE
Kind of data set: Substrate activity at SLC6A14 (unknown origin) expressed in Xenopus laevis oocytes assessed as ABT0+ mediated drug uptake at 0.5 mM incubated for 10 mins by HPLC analysis. It counts as ADME, cell-based. As to conditions: oocyte, 500 µM.

Data set [3] deals with T2, Sodium- and chloride-dependent neutral and basic amino acid transporter B(0+) (Homo sapiens) (UniProt Q9UN76).
T2 sequence (whole entry): T1 sequence (Q9UN76 whole entry)
The data set is described as follows: Substrate activity at SLC6A14 (unknown origin) expressed in Xenopus laevis oocytes assessed as inhibition of drug uptake at 0.5 mM incubated for 10 mins in presence of glycine by HPLC analysis relative to control. It counts as cell-based. As to conditions: Oocyte.

Data set [4] concerns the target T3, Solute carrier family 15 member 1 (Homo sapiens, UniProt P46059).
T3 sequence (P46059 whole entry): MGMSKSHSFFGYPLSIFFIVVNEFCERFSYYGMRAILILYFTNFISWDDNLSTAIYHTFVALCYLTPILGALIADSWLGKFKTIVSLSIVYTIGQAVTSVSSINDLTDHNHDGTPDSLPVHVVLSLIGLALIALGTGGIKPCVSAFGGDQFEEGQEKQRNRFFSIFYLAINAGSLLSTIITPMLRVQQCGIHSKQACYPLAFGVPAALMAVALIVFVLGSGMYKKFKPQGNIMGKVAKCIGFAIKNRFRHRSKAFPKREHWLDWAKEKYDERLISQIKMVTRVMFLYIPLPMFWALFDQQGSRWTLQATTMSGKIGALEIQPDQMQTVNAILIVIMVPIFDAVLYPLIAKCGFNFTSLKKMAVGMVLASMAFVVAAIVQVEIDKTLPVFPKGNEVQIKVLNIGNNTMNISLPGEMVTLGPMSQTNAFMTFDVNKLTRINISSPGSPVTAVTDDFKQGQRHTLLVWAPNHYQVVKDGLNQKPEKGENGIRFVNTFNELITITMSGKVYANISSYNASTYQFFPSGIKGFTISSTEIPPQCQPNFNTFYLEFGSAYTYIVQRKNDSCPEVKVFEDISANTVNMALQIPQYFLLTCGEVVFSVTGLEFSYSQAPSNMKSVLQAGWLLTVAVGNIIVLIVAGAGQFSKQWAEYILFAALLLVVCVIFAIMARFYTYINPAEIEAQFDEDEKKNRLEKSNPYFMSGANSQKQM
The data set is described as follows: Substrate activity at PEPT1 (unknown origin) expressed in MDCK cells assessed as PEPT1 mediated drug uptake at 0.5 mM incubated for 10 mins by HPLC analysis. It counts as ADME, cell-based. As to conditions: 500 µM.

The nature of data set [5]: Selectivity ratio of substrate activity at SLC6A14 (unknown origin) expressed in Xenopus laevis oocytes assessed as ABT0+ mediated drug uptake to drug uptake in Xenopus laevis oocytes. The arrangement: species or system Oocyte.
Data set [6] in a line: Half life of compound in PBS buffer at pH 7.4 at 200 uM by HPLC analysis. The data set is classed as physicochemical.
Data set [7] concerns the target T1, Sodium- and chloride-dependent neutral and basic amino acid transporter B(0+). The data set is described as follows: Substrate activity at SLC6A14 (unknown origin) expressed in Xenopus laevis oocytes assessed as inhibition of glycine uptake incubated for 10 mins by HPLC/MS/MS analysis. The data set is classed as cell-based, Oocyte.
In the next data set the test system is MDA-MB-231. The data set is described as follows: Potency index, ratio of FUdR GI50 to test compound GI50 for growth inhibition of human MDA-MB-231 cells. The data set is classed as functional.
A short description of data set [8]: Drug uptake in MDCK cells incubated for 10 mins by HPLC analysis. As to conditions: dog, 500 µM, dose 0.5 mM. The data set is classed as ADME, cell-based, Canis lupus familiaris.
A short description of data set [9]: Half life of compound in human ZR-75-1 cell homogenate. The data set is classed as ADME, tissue-based.
The subject of a further data set is MIA PaCa-2. The data set is described as follows: Potency index, ratio of FUdR GI50 to test compound GI50 for growth inhibition of human MIA-PaCa-2 cells. The data set is classed as functional.
Data set [10] is described as follows: Drug uptake in Xenopus laevis oocytes at 0.5 mM incubated for 10 mins by HPLC analysis. It counts as ADME, cell-based. As to conditions: oocyte, 500 µM.
Data set [11] addresses T3, Solute carrier family 15 member 1. The data set is described as follows: Substrate activity at PEPT1 (unknown origin) expressed in MDCK cells assessed as inhibition of gly-sar uptake incubated for 10 mins by HPLC/MS/MS analysis. The data set is classed as cell-based.
The nature of data set [12]: Half life in rat plasma at 200 uM measured up to 120 mins by HPLC-MS/MS analysis. The data set is classed as ADME, cell-free.
Data set [13] concerns the target T2, Sodium- and chloride-dependent neutral and basic amino acid transporter B(0+) (Homo sapiens). The data set is described as follows: Substrate activity at SLC6A14 (unknown origin) expressed in Xenopus laevis oocytes assessed as increase in ABT0+ mediated drug uptake at 1 mM in presence of Na+ ion by HPLC analysis. The data set is classed as cell-based. As to conditions: Oocyte.

For data set [14] the target is unchanged. The data set is described as follows: Substrate activity at SLC6A14 (unknown origin) expressed in Xenopus laevis oocytes assessed as increase in ABT0+ mediated drug uptake at 1 mM in presence of Cl- ion by HPLC analysis. The data set is classed as cell-based. As to conditions: Oocyte.
A further data set deals with thymidine phosphorylase. The data set is described as follows: Half life of compound in thymidine phosphorylase buffer at 300 uM by HPLC analysis. It counts as physicochemical.
Data set [15] is described as follows: Half life of compound in human MDA-MB-231 cell homogenate. The data set is classed as ADME, tissue-based.
The nature of data set [16]: Selectivity ratio of substrate activity at PEPT1 (unknown origin) expressed in MDCK cells assessed as PEPT1 mediated drug uptake to drug uptake in MDCK cells.
A further data set has as its system ZR-75-1. Kind of data set: Potency index, ratio of FUdR GI50 to test compound GI50 for growth inhibition of human ZR-75-1 cells. The data set is classed as functional.

For `N[C@@H](CCC(=O)OC[C@H]1O[C@@H](n2cc(F)c(=O)[nH]c2=O)C[C@@H]1O)C(=O)O`, the half-life in data set [1] stood at 20.1 min; in data set [9], 12.3 min; in data set [15], 17.3 min. Further, the Drug uptake is 2.12 nmol/mg/min in [2], < 0.04 nmol/mg/min in data set [4], < 0.04 nmol/mg/min in [8] and 0.35 nmol/mg/min in data set [10]. Besides, the inhibition in data set [3] came out at 50%. For the same compound, the Ratio came to 6.23 in data set [5] and 1 in data set [16]. In addition, the half-life at 200 µM in data set [6] amounted to 258 min; in data set [12] it was 114 min. Besides, the pIC50 in data set [7] is 2.95; in [11], 1.94. For the same compound, the RatioGI50 in the data set with MDA-MB-231, with MIA PaCa-2 and in the data set on ZR-75-1 was 7 each time. The result in data set [13] and in data set [14] was Active. Further, in the data set on thymidine phosphorylase, the half-life at 300 µM is 256 min.

In the case of `CC(C)[C@H](N)C(=O)OC[C@H]1O[C@@H](n2cc(F)c(=O)[nH]c2=O)C[C@@H]1O`, the figures for the half-life in data set [1], in data set [9] and in data set [15] were 11.3 min, 16.4 min and 15.3 min, respectively. Also, the Drug uptake is 2.34 nmol/mg/min in data set [2], 1.78 nmol/mg/min in data set [4], 0.41 nmol/mg/min in data set [8] and 0.31 nmol/mg/min in data set [10]. For the same compound, in data set [3], the inhibition came out at 50%. Also, the Ratio was determined as 7.55 in data set [5] and 4.34 in [16]. In addition, the half-life at 200 µM was determined as 203 min in data set [6] and 78.5 min in [12]. Moreover, the pIC50 was 3.01 in [7] and 2.95 in data set [11]. The RatioGI50 in the data set with MDA-MB-231, in the data set on MIA PaCa-2 and with ZR-75-1 was 7 in each case. Also, the outcome in [13] and in [14] was Active. In the data set on thymidine phosphorylase, this compound registered a half-life at 300 µM of 408 min.

As for `N[C@@H](CCC(=O)O[C@H]1C[C@H](n2cc(F)c(=O)[nH]c2=O)O[C@@H]1CO)C(=O)O`, the results for the half-life in data set [1], in data set [9] and in data set [15] were 10.2 min, 7.9 min and 8.3 min, respectively. Further, the Drug uptake in data set [2] was 1.04 nmol/mg/min; in [4], < 0.04 nmol/mg/min; in [8], < 0.04 nmol/mg/min; in data set [10], 0.28 nmol/mg/min. Moreover, the values for the Ratio in data set [5] and in data set [16] were 3.71 and 1, respectively. The half-life at 200 µM in data set [6] was 183 min; in data set [12], 97.4 min. Also, the pIC50 in [7] is 2.74; in data set [11], 1.89. In addition, the RatioGI50 in the data set on MDA-MB-231, in the data set with MIA PaCa-2 and in the data set with ZR-75-1 was 7 in each case. The compound also returned a half-life at 300 µM with thymidine phosphorylase of 289 min.

Consider `CC(C)[C@H](N)C(=O)O[C@H]1C[C@H](n2cc(F)c(=O)[nH]c2=O)O[C@@H]1CO`, for which the half-life in [1] is 12.2 min; in [9] it was 9.2 min; in [15], 14.9 min. Besides, the Drug uptake was 1.56 nmol/mg/min in [2], 1.23 nmol/mg/min in data set [4], 0.43 nmol/mg/min in data set [8] and 0.39 nmol/mg/min in [10]. Also, the Ratio in data set [5] is 4; in data set [16], 2.86. Moreover, the half-life at 200 µM in data set [6] stood at 187 min; in [12], 65.3 min. In addition, the pIC50 in data set [7] was 2.79; in data set [11], 2.72. Also, the RatioGI50 with MDA-MB-231, with MIA PaCa-2 and in the data set on ZR-75-1 was 7 in each case. In addition, in the data set on thymidine phosphorylase, the half-life at 300 µM amounted to 368 min.
